Measurements taken from the supplement of paper PMC11061612.

Tests used:
Experiment in all cases: combination Emax (second highest fraction inhibited in the dose matrix, 72 h); higher = more inhibition; extreme values may be limits of the assay
[1] = test system: A673 (Ewing's Sarcoma)
Summary of the method: (§1)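 After 24 hours at 37°C and 5% CO2 in 1536-well plates, cells in DMEM/F12 or RPMI plus 10% FBS received two-drug dose matrices for 72 hours. Viability came from CellTiter-Glo 2.0 luminescence and was scaled as inhibition, anchored at 0 by vehicle wells and at 1 by blank wells. Combination Emax is taken as the second-highest inhibition in the matrix, and Bliss excess as the observed combination effect less EA + EB − EA·EB, with EA and EB the single-agent effects.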

[2] = test system: BE2-M17 (Neuroblastoma)
Summary of the method: as §1

[3] = test system: BPH-1 (Non-Cancerous)
Summary of the method: as §1

[4] = test system: CAL-72 (Osteosarcoma)
Summary of the method: as §1

[5] = test system: Detroit562 (Head and Neck Carcinoma)
Summary of the method: as §1

[6] = test system: ESS-1 (Other Solid Carcinomas)
Summary of the method: as §1

[7] = test system: FTC-133 (Thyroid Gland Carcinoma)
Summary of the method: as §1

[8] = test system: HH (T-Cell Non-Hodgkin's Lymphoma)
Summary of the method: as §1

[9] = test system: HuCCT1 (Biliary Tract Carcinoma)
Summary of the method: as §1

[10] = test system: HuH-7 (Hepatocellular Carcinoma)
Summary of the method: as §1

[11] = test system: KMRC-20 (Kidney Carcinoma)
Summary of the method: as §1

[12] = test system: MHH-CALL-2 (B-Lymphoblastic Leukemia)
Summary of the method: as §1

[13] = test system: MPP-89 (Mesothelioma)
Summary of the method: as §1

[14] = test system: NCI-H1568 (Lung Adenocarcinoma)
Summary of the method: as §1

[15] = test system: NCI-H2052 (Mesothelioma)
Summary of the method: as §1

[16] = test system: NCI-H209 (Small Cell Lung Carcinoma)
Summary of the method: as §1

[17] = test system: NUGC-4 (Gastric Carcinoma)
Summary of the method: as §1

[18] = test system: OVCAR-5 (Ovarian Carcinoma)
Summary of the method: as §1

[19] = test system: SW1573 (Lung Adenocarcinoma)
Summary of the method: as §1

[20] = test system: YAPC (Pancreatic Carcinoma)
Summary of the method: as §1

Row | Structure (SMILES) | combination Emax [1] | combination Emax [2] | combination Emax [3] | combination Emax [4] | combination Emax [5] | combination Emax [6] | combination Emax [7] | combination Emax [8] | combination Emax [9] | combination Emax [10] | combination Emax [11] | combination Emax [12] | combination Emax [13] | combination Emax [14] | combination Emax [15] | combination Emax [16] | combination Emax [17] | combination Emax [18] | combination Emax [19] | combination Emax [20]
1 | COc1nnc2ccc(N3CCC(c4ccc(OCCN5CCN(C)C(=O)[C@H]5C)cc4)CC3)nn12 [AZD5153] + CCN(CCO)CCCOc1ccc2c(Nc3cc(CC(=O)Nc4cccc(F)c4)[nH]n3)ncnc2c1 [AZD2811] (first compound max 1 µM, 7x7, partner max 1 µM) | 0.616 | 0.644 | 0.844 | 0.503 | 0.892 | 0.809 | 0.678 | 0.485 | 0.498 | 0.463 | 0.414 | 0.5 | 0.467 | 0.283 | 0.395 | 0.458 | 0.557 | 0.545 | 0.504 | 0.342
2 | COc1nnc2ccc(N3CCC(c4ccc(OCCN5CCN(C)C(=O)[C@H]5C)cc4)CC3)nn12 [AZD5153] + C[C@@H]1COCCN1C2=NC(=NC(=C2)C3(CC3)[S@](=N)(=O)C)C4=C5C=CNC5=NC=C4 [AZD6738] (first compound max 1 µM, 7x7, partner max 10 µM) | 0.84 | 0.92 | 0.831 | 0.784 | 0.919 | 0.949 | 0.782 | 0.491 | 0.666 | 0.724 | 0.775 | 0.932 | 0.604 | 0.476 | 0.209 | 0.908 | 0.652 | 0.744 | 0.557 | 0.529
3 | COc1nnc2ccc(N3CCC(c4ccc(OCCN5CCN(C)C(=O)[C@H]5C)cc4)CC3)nn12 [AZD5153] + Cc1c2c(nn1C)CSCc1cc(n(C)n1)CSc1cc(c3ccccc3c1)OCCCc1c(C(=O)O)n(C)c3c-2c(Cl)ccc13 [AZD5991] (first compound max 1 µM, 7x7, partner max 1 µM) | 0.699 | 0.847 | 0.86 | 0.792 | 0.877 | 0.898 | 0.615 | 1 | 0.495 | 0.755 | 0.37 | 1 | 0.581 | 0.393 | 0.328 | 0.981 | 0.652 | 0.496 | 0.422 | 0.365
4 | COc1nnc2ccc(N3CCC(c4ccc(OCCN5CCN(C)C(=O)[C@H]5C)cc4)CC3)nn12 [AZD5153] + Cn1cnc2c(F)c(Nc3ccc(Br)cc3Cl)c(C(=O)NOCCO)cc21 [Selumetinib] (first compound max 1 µM, 7x7, partner max 10 µM) | 0.604 | 0.825 | 0.87 | 0.389 | 0.792 | 0.585 | 0.592 | 0.42 | 0.826 | 0.885 | 0.414 | 0.432 | 0.554 | 0.413 | 0.403 | 0.508 | 0.831 | 0.685 | 0.577 | 0.477
5 | Cc1c2c(nn1C)CSCc1cc(n(C)n1)CSc1cc(c3ccccc3c1)OCCCc1c(C(=O)O)n(C)c3c-2c(Cl)ccc13 [AZD5991] + C1CN(CCC1(C(=O)N[C@@H](CCO)C2=CC=C(C=C2)Cl)N)C3=NC=NC4=C3C=CN4 [Capivasertib] (first compound max 1 µM, 7x7, partner max 3 µM) | 0.421 | 0.966 | 0.469 | 0.415 | 0.325 | 0.366 | 0.663 | 0.928 | 0.162 | 0.208 | 0.223 | 1 | 0.268 | 0.191 | 0.265 | 0.36 | 0.215 | 0.215 | 0.231 | 0.149
6 | Cc1c2c(nn1C)CSCc1cc(n(C)n1)CSc1cc(c3ccccc3c1)OCCCc1c(C(=O)O)n(C)c3c-2c(Cl)ccc13 [AZD5991] + C=CCn1c(=O)c2cnc(Nc3ccc(N4CCN(C)CC4)cc3)nc2n1-c1cccc(C(C)(C)O)n1 [AZD1775] (first compound max 1 µM, partner max 1 µM) | 0.614 | 0.986 | 0.525 | 0.782 | 0.749 | 0.988 | 0.956 | 0.77 | 0.759 | 0.448 | 0.638 | 1 | 0.477 | 0.434 | 0.346 | 0.95 | 0.47 | 0.343 | 0.44 | 0.416
7 | Cc1c2c(nn1C)CSCc1cc(n(C)n1)CSc1cc(c3ccccc3c1)OCCCc1c(C(=O)O)n(C)c3c-2c(Cl)ccc13 [AZD5991] + CC1(C)CCC(CN2CCN(c3ccc(C(=O)NS(=O)(=O)c4ccc(NCC5CCOCC5)c([N+](=O)[O-])c4)c(Oc4cnc5[nH]ccc5c4)c3)CC2)=C(c2ccc(Cl)cc2)C1 [Venetoclax] (first compound max 1 µM, 7x7, partner max 1 µM) | 0.868 | 0.915 | 0.353 | 0.423 | 0.156 | 0.39 | 0.677 | 0.858 | 0.203 | 0.306 | 0.162 | 0.983 | 0.171 | 0.248 | 0.229 | 0.996 | 0.178 | 0.159 | 0.177 | 0.146
8 | Cc1c2c(nn1C)CSCc1cc(n(C)n1)CSc1cc(c3ccccc3c1)OCCCc1c(C(=O)O)n(C)c3c-2c(Cl)ccc13 [AZD5991] + CCN(CCO)CCCOc1ccc2c(Nc3cc(CC(=O)Nc4cccc(F)c4)[nH]n3)ncnc2c1 [AZD2811] (first compound max 1 µM, 7x7, partner max 1 µM) | 0.946 | 0.905 | 0.873 | 0.473 | 0.951 | 0.733 | 0.761 | 0.728 | 0.267 | 0.219 | 0.312 | 0.987 | 0.248 | 0.306 | 0.265 | 0.967 | 0.22 | 0.205 | 0.321 | 0.238
9 | Cc1c2c(nn1C)CSCc1cc(n(C)n1)CSc1cc(c3ccccc3c1)OCCCc1c(C(=O)O)n(C)c3c-2c(Cl)ccc13 [AZD5991] + CN(C)CCCOc1ccc(-c2ccc3ncc4c(c3c2)n(C2CCOCC2)c(=O)n4C)cn1 [AZD0156] (first compound max 1 µM, 7x7, partner max 1 µM) | 0.438 | 0.875 | 0.733 | 0.328 | 0.269 | 0.36 | 0.719 | 0.756 | 0.286 | 0.252 | 0.218 | 0.985 | 0.182 | 0.401 | 0.285 | 0.544 | 0.238 | 0.251 | 0.214 | 0.169
10 | Cc1c2c(nn1C)CSCc1cc(n(C)n1)CSc1cc(c3ccccc3c1)OCCCc1c(C(=O)O)n(C)c3c-2c(Cl)ccc13 [AZD5991] + C[C@@H]1COCCN1C2=NC(=NC(=C2)C3(CC3)[S@](=N)(=O)C)C4=C5C=CNC5=NC=C4 [AZD6738] (first compound max 1 µM, 7x7, partner max 10 µM) | 0.823 | 0.991 | 0.521 | 0.832 | 0.902 | 0.958 | 0.923 | 0.759 | 0.756 | 0.279 | 0.516 | 1 | 0.596 | 0.502 | 0.338 | 0.997 | 0.561 | 0.645 | 0.368 | 0.327
11 | Cc1c2c(nn1C)CSCc1cc(n(C)n1)CSc1cc(c3ccccc3c1)OCCCc1c(C(=O)O)n(C)c3c-2c(Cl)ccc13 [AZD5991] + C[C@@H](Nc1cc(F)cc(F)c1)c1cc(C(=O)N(C)C)cc2c(=O)cc(N3CCOCC3)oc12 [AZD8186] (first compound max 1 µM, 7x7, partner max 3 µM) | 0.557 | 0.92 | 0.461 | 0.365 | 0.305 | 0.372 | 0.667 | 0.87 | 0.4 | 0.208 | 0.262 | 0.989 | 0.22 | 0.225 | 0.374 | 0.384 | 0.374 | 0.267 | 0.288 | 0.182
12 | Cc1c2c(nn1C)CSCc1cc(n(C)n1)CSc1cc(c3ccccc3c1)OCCCc1c(C(=O)O)n(C)c3c-2c(Cl)ccc13 [AZD5991] + Cc1cc2ncnn2cc1Nc1ncc2c(n1)n(C1CCOCC1)c(=O)n2C [AZD7648] (first compound max 1 µM, 7x7, partner max 10 µM) | 0.471 | 0.9 | 0.409 | 0.523 | 0.422 | 0.407 | 0.649 | 0.71 | 0.406 | 0.185 | 0.295 | 1 | 0.343 | 0.232 | 0.394 | 0.431 | 0.279 | 0.256 | 0.19 | 0.248
13 | Cc1c2c(nn1C)CSCc1cc(n(C)n1)CSc1cc(c3ccccc3c1)OCCCc1c(C(=O)O)n(C)c3c-2c(Cl)ccc13 [AZD5991] + Cn1cnc2c(F)c(Nc3ccc(Br)cc3Cl)c(C(=O)NOCCO)cc21 [Selumetinib] (first compound max 1 µM, 7x7, partner max 3 µM) | 0.671 | 0.956 | 0.604 | 0.406 | 0.365 | 0.224 | 0.738 | 0.714 | 0.508 | 0.301 | 0.196 | 1 | 0.193 | 0.563 | 0.314 | 0.402 | 0.616 | 0.543 | 0.169 | 0.209
